Tests used:
[1] = system: GAN diet-induced MASH in Fxr^△IE mice; assay: GAN diet-fed Fxr^△IE mice; format: in vivo, mouse; conditions: GAN diet 20 weeks, oral 10 mg/kg daily for 8 weeks
Procedure: (§1) For the long-term MASH model, 8- to 10-week-old male C57BL/6 J mice were fed with an MCS diet or MCD diet for 2 weeks, before the MCD models were administered with vehicle or GUDCA (50 mg/kg), OCA (30 mg/kg), and DC646 (10 mg/kg) for 4 weeks. The serum, liver, and intestine were collected 2 h after the final dosing. Male Fxr^△IE mice (8–10 weeks old) were fed with a GAN diet for 20 weeks and administered with vehicle or DC646 (10 mg/kg) from the 12th week for 8 weeks. The serum, liver, and intestine were collected 2 h after the final dosing.
Hepatic TG and TC, and plasma ALT and AST levels were measured using commercial kits from Nanjing Jiancheng Bioengineering Institute according to the manufacturer’s instructions. To measure hepatic TG contents, liver tissues (~10 mg) were homogenized in 100 μL 1% TritonX-100 and centrifuged at 3000 rpm for 10 min. […] Hepatic TG or TC levels were read at 510 or 500 nm using a microplate reader (Versamax, Molecular Devices) and normalized using the protein concentration. […] The data were acquired using the kinetic mode with an interval of 30 s and 31 total reads at 340 nm using a microplate reader (Versamax, Molecular Devices).
Tissue specimens were fixed in 10% formalin for 12–24 h before being dehydrated and paraffin-embedded. […] At least three discontinuous liver sections were evaluated for each mouse.

MCD diet-induced MASH [2] = assay: MCD diet-induced MASH mice, long-term model; format: in vivo, mouse; conditions: oral, 4 weeks
Procedure: as §1
(§2) The intestine and liver were frozen in liquid nitrogen and stored at −80°C. RNA was extracted, and complementary DNA was synthesized from 1 μg total RNA. RT-qPCR was performed on a Bio-Rad CFX384 Touch detection system (Bio-Rad). The primer sequences for RT-qPCR are shown in Supplementary Table S5. RNA levels were analyzed by 2-^ΔΔCt, normalized to 18S ribosomal RNA and expressed as fold change relative to the control group.
Hepatic TG and TC, and plasma ALT and AST levels were measured using commercial kits from Nanjing Jiancheng Bioengineering Institute according to the manufacturer’s instructions. To measure hepatic TG contents, liver tissues (~10 mg) were homogenized in 100 μL 1% TritonX-100 and centrifuged at 3000 rpm for 10 min. Supernatants were collected, and 2 μL samples were incubated with 200 μL reaction buffer at 37°C for 10 min. Hepatic TG or TC levels were read at 510 or 500 nm using a microplate reader (Versamax, Molecular Devices) and normalized using the protein concentration. To measure plasma ALT and AST levels, reaction buffer 1 and reaction buffer 2 were mixed at a ratio of 1:1, before adding 2 μL plasma sample and 200 μL mixed reaction buffer in a 96-well plate. The data were acquired using the kinetic mode with an interval of 30 s and 31 total reads at 340 nm using a microplate reader (Versamax, Molecular Devices).
Tissue specimens were fixed in 10% formalin for 12–24 h before being dehydrated and paraffin-embedded. The sections were stained with H&E. The NAS was calculated as a summary score including individual components of steatosis (0–3), lobular inflammation (0–3), and hepatocyte ballooning (0–2) for each liver section by a blinded liver pathologist, and the results were reviewed by a blinded hepatologist according to a previous protocol. To visualize liver fibrosis, paraffin-embedded tissue samples were stained with Sirius Red to characterize the collagen deposition. To visualize lipid accumulation and inflammation in the liver, frozen liver sections were stained with Oil Red O and F4/80, and images were acquired using a Leica DM6B laser microdissection system. At least three discontinuous liver sections were evaluated for each mouse.

[3] = system: FXR signaling (Shp) in intestinal organoids; assay: FXR target gene expression in intestinal organoids; format: cell-based, mouse; conditions: DC646 50 μmol/L, GW4064 10 μmol/L, 24 h
Source text: Intestinal crypts were isolated from 6- to 8-week-old C57BL/6 mice and Fxr^△IE mice as previously described with minor revision. Briefly, the abdomen of the mouse was dissected, and the small intestine was isolated with fats removed. The isolated intestine was flushed with cold PBS to remove the luminal contents. Then, the intestine was opened longitudinally and washed three times with PBS gently. The tissue was cut into small fragments (2 mm^2) and further washed three times with cold PBS gently, followed by incubation with 5 mmol/L EDTA-PBS at 4°C. After 40 min, the fragments were vortexed vigorously, and then the suspension was filtered through a […] and centrifuged at 50 g for 10 min. The crypts were counted and plated with Matrigel (1:1, 25 μL) and 500 μL IntestiCult Organoid Growth Medium with Supplements 1 and 2. The isolated crypts were cultured for 3–5 days and treated with indicated chemicals as described.
The intestine and liver were frozen in liquid nitrogen and stored at −80°C. RNA was extracted, and complementary DNA was synthesized from 1 μg total RNA. RT-qPCR was performed on a Bio-Rad CFX384 Touch detection system (Bio-Rad). The primer sequences for RT-qPCR are shown in Supplementary Table S5. RNA levels were analyzed by 2-^ΔΔCt, normalized to 18S ribosomal RNA and expressed as fold change relative to the control group. […]

MCD diet-induced MASH [4] = assay: MCD diet short-term MASH model in WT and Fxr-null mice; format: in vivo, mouse; conditions: oral 10 mg/kg, 2 weeks
Procedure: For the short-term MASH model, 8- to 10-week-old male C57BL/6 J or Fxr-null mice were fed with an MCD diet, combined with oral administration of vehicle or DC646 (10 mg/kg) for 2 weeks. The serum, liver, and intestine were collected 2 h after the final dosing.
as §2
Hepatic TG and TC, and plasma ALT and AST levels were measured using commercial kits from Nanjing Jiancheng Bioengineering Institute according to the manufacturer’s instructions. To measure hepatic TG contents, liver tissues (~10 mg) were homogenized in 100 μL 1% TritonX-100 and centrifuged at 3000 rpm for 10 min. Supernatants were collected, and 2 μL samples were incubated with 200 μL reaction buffer at 37°C for 10 min. Hepatic TG or TC levels were read at 510 or 500 nm using a microplate reader (Versamax, Molecular Devices) and normalized using the protein concentration. […] The data were acquired using the kinetic mode with an interval of 30 s and 31 total reads at 340 nm using a microplate reader (Versamax, Molecular Devices).
Tissue specimens were fixed in 10% formalin for 12–24 h before being dehydrated and paraffin-embedded. The sections were stained with H&E. The NAS was calculated as a summary score including individual components of steatosis (0–3), lobular inflammation (0–3), and hepatocyte ballooning (0–2) for each liver section by a blinded liver pathologist, and the results were reviewed by a blinded hepatologist according to a previous protocol. […] At least three discontinuous liver sections were evaluated for each mouse.

[5] = Tissue distribution (pharmacokinetic study); format: in vivo, mouse; conditions: ICR mice, single oral 20 mg/kg
Procedure: Male ICR mice (6–8 weeks old, 18–22 g, Shanghai Lingchang BioTech Co., Ltd., China) were used in the pharmacokinetic study. The mice were administered with a single dose of cyclopeptide DC646 in 5% DMSO and 95% hydroxypropyl methylcellulose solution (0.5% hydroxypropyl methylcellulose in deionized water in weight ratio) (volume ratio) by oral gavage (20 mg/kg). Before the test, the mice were fasted for 12 h and were fed regularly 2 h after administration. Subsequently, 50 μL of blood was collected from the portal vein at 1, 4, 8, and 24 h in an EDTA-K2 nebulization tube. Samples were centrifuged at 12,000 rpm for 2 min to separate the plasma, which was then stored at −20°C to determine the drug concentration in the blood. After sacrifice, the livers and intestines were collected, washed with ice-cold saline, and stored at −20°C before compound measurement.

[6] = DC646 10 mg/kg, GUDCA 50 mg/kg, OCA 30 mg/kg

## CC(C)C[C@@H]1NC(=O)[C@@H]2CN(CCO2)c2cccc3c2c(cn3[Si](C(C)C)(C(C)C)C(C)C)C[C@H](NS(=O)(=O)C(F)(F)F)C(=O)OCCCCNC(=O)[C@H](CC(C)C)NC(=O)[C@@H]2CN(CCO2)c2cccc3c2c(cn3[Si](C(C)C)(C(C)C)C(C)C)C[C@H](NS(=O)(=O)C(F)(F)F)C(=O)OCCCCNC1=O [DC646, N,N'-((1^2R,1^4S,16^2R,16^4S,4R,13R,19R,28R)-13,28-diisobutyl-5,12,15,20,27,30-hexaoxo-2^1,17^1-bis(triisopropylsilyl)-2^1H,17^1H-6,21-dioxa-11,14,26,29-tetraaza-1(4,2),16(2,4)-dimorpholina-2,17(4,3)-diindolacyclotriacontaphane-4,19-diyl)bis(1,1,1-trifluoromethanesulfonamide)]
[1]
  Liver/body weight ratio, serum ALT, serum AST, liver TG, liver TC and NAS score: did not reduce
  mRNA levels of genes in the intestinal FXR signaling: no difference
MCD diet-induced MASH [2]; DC646 10 mg/kg
  F4/80 staining, macrophage infiltration in the liver: good efficacy in reducing macrophage infiltration
  Hepatic FXR signaling in MASH mice: without affecting
  Hepatic triglyceride (TG) levels: markedly reduced
  Intestinal FXR signaling in MASH mice: selectively inhibited
  NAFLD activity scoring (NAS): alleviating MASH pathologies
MCD diet-induced MASH [2]; DC646 10 mg/kg, GUDCA 50 mg/kg
  Hepatic mRNA levels of inflammation-related genes: notable reduction
MCD diet-induced MASH [2]; [6]
  Hepatic mRNA levels of lipid metabolism-related genes / hepatic lipid accumulation: reduce the mRNA levels
  Serum alanine aminotransferase (ALT) level: significantly lowered
MCD diet-induced MASH [2]; versus vehicle-, GUDCA- and OCA-treated groups
  H&E and Oil Red O staining, lipid droplets: fewer lipid droplets
[3]; Fxr^△IE organoids
  mRNA expression of GW4064-induced FXR target gene Shp: not observed
[3]; WT organoids
  mRNA expression of GW4064-induced FXR target gene Shp: effectively reversed
MCD diet-induced MASH [4]; Fxr-null mice
  Decrease in ALT and antisteatotic effect: abolished
MCD diet-induced MASH [4]; WT mice
  NAS score, steatosis: effectively reduced steatosis
  mRNA levels of intestinal FXR target genes Shp and Fgf15: significantly downregulated
[5]; 1 h
  Concentration in liver: BQL^$
  Concentration in serum: BQL^&
[5]; 4 h
  Concentration in liver: BQL
  Concentration in serum: BQL
[5]; 8 h
  Concentration in liver: BQL
  Concentration in serum: BQL
[5]; 24 h
  Concentration in intestine: BQL^$
  Concentration in liver: BQL
  Concentration in serum: BQL
[5]; male, mouse, intestine, 1 h, read-out: Concentration in intestine
  tissue level at time at 1 h: 6350 ng/g
[5]; male, mouse, intestine, 4 h, read-out: Concentration in intestine
  tissue level at time at 4 h: 435 ng/g
[5]; male, mouse, intestine, 8 h, read-out: Concentration in intestine
  tissue level at time at 8 h: 72 ng/g

— PMC11992618, “Development of cyclopeptide inhibitors specifically disrupting FXR–coactivator interaction in the intestine as a novel therapeutic strategy for MASH” (Life Metabolism, 2025)
